# Measurements published in paper PMC8944975, “Secretin Receptor as a Target in Gastrointestinal Cancer: Expression Analysis and Ligand Development” (Biomedicines, 2022).
# Target: human SCTR (Homo sapiens, UniProt P47872)
# Assay: agonist-induced β-arr2-GFP translocation
# Format: cell-based
# Parameters: expressed in transfected cells; host or cells: U2OS (human osteosarcoma), stably co-transfected with β-arrestin2-GFP
# Settings: Supplementary Tables S1 and S2, decimal comma, '-' not detectable (Figure 4); for β-arrestin2-GFP agonism efficacy: % of wild-type secretin; for EC50: U2OS-SCTR/β-arr2-GFP cells, 20 min at 37 °C, mean of at least three independent experiments in duplicates, read-out: β-arrestin2-GFP agonism potency
# Excerpt: U2OS-SCTR/β-arr2-GFP: human osteosarcoma cell line U2OS (purchased from ATCC/LGC Standards, Wesel, Germany) were stably transfected with plasmids encoding SCTR (Homo sapiens) and the fusion protein β-arrestin2-green fluorescent protein (GFP) (Rattus norvegicus-Aequorea victoria) (β-arr2-GFP).
# To evaluate reactivity of human SCTR exposed to different ligand variants, intracellular translocation of a fusion protein of β-arrestin2 and green fluorescent protein was utilized. For evaluation of activation, receptor-mediated recruitment of cytoplasmic β-arr2-GFP was monitored through its translocation into condensed intracellular vesicles. The extent of translocation events was quantified by determining the increasing granularization of the intracellular fluorescence utilizing an automated high-throughput microscope in combination with computational algorithms to estimate potency (EC50) and efficacy, thus characterizing ligand-SCTR interaction. U2OS-SCTR/β-arr2-GFP cells were seeded in 96-well cell culture plates to 60–80% confluence. On the following day, preceding stimulation, cells were incubated for one hour in serum-free medium. Ligand variants were applied as serial dilutions in assay buffer C1. After preincubation, supernatant was discarded by tapping plates overhead repeatedly. For stimulation, 50 µL of ligand dilution was applied per well in duplicates and incubated for 20 min at 37 °C. Successively, cells were fixed by applying 4% buffered formaldehyde (Herbeta Arzneimittel, Berlin, Germany) for 10 min at room temperature and consecutively permeabilized for 10 min at room temperature with 0.1% TritonX-100 in PBS, containing DAPI (4′,6-Diamidin-2-phenylindol, SigmaAldrich, Deisenhofen, Germany, 1 µg/mL) to counterstain nuclei. Microscopic images were recorded by an IN Cell Analyzer 1000 (GE Healthcare, Reading, UK) with 20× magnification at 5 frames per well in a 96-well format. Image processing was performed with IN Cell Investigator software (GE Healthcare, Reading, UK), applying the provided granularity algorithm. The output of the analysis was indicated as vesicle area/cell and was utilized for calculation of concentration–response curves. Parameters derived from curve fitting included the concentration of half-maximal activity (EC50), and intrinsic activity. Intrinsic activity was normalized defining reaction to non-modified wild type secretin as the 100% curve maximum value.
# Sequence of human SCTR (P47872 23-440): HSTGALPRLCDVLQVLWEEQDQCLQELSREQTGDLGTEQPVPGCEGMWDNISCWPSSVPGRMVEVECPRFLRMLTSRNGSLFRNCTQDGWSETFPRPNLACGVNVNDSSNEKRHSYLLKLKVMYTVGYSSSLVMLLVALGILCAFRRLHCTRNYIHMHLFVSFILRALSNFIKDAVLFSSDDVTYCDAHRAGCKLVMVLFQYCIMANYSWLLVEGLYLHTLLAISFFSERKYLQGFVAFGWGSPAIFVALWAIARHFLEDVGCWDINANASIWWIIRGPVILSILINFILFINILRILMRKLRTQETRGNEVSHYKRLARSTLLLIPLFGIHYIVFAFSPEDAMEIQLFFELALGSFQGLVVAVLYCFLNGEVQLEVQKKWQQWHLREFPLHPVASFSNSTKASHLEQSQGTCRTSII
smiles,measurement,value
CC(C)C[C@H](NC(=O)[C@H](CCCNC(=N)N)NC(=O)[C@H](C)NC(=O)CNC(=O)[C@H](CCC(=O)O)NC(=O)[C@H](CCCNC(=N)N)NC(=O)[C@H](CC(C)C)NC(=O)[C@H](CCCNC(=N)N)NC(=O)[C@H](CO)NC(=O)[C@H](CC(C)C)NC(=O)[C@H](CCC(=O)O)NC(=O)[C@H](CO)NC(=O)[C@@H](NC(=O)[C@H](Cc1ccccc1)NC(=O)[C@@H](NC(=O)CNC(=O)[C@H](CC(=O)O)NC(=O)[C@H](CO)NC(=O)[C@@H](N)Cc1c[nH]cn1)[C@@H](C)O)[C@@H](C)O)C(=O)N[C@@H](CCC(N)=O)C(=O)N[C@@H](CCCNC(=N)N)C(=O)N[C@@H](CC(C)C)C(=O)N[C@@H](CC(C)C)C(=O)N[C@@H](CCC(N)=O)C(=O)NCC(=O)N1CCC[C@H]1C(=O)N[C@H](C(=O)O)C(C)C [Peptide 84],β-arrestin2-GFP agonism efficacy,"95,03 % Sec"
same,EC50,72.6 nM
CC(C)C[C@H](NC(=O)[C@H](CCCNC(=N)N)NC(=O)[C@H](C)NC(=O)CNC(=O)[C@H](CCC(=O)O)NC(=O)[C@H](CCCNC(=N)N)NC(=O)[C@H](CC(C)C)NC(=O)[C@H](CCCNC(=N)N)NC(=O)[C@H](CO)NC(=O)[C@H](CC(C)C)NC(=O)[C@H](CCC(=O)O)NC(=O)[C@H](CO)NC(=O)[C@@H](NC(=O)[C@H](Cc1ccccc1)NC(=O)[C@@H](NC(=O)CNC(=O)[C@H](CC(=O)O)NC(=O)[C@H](CO)NC(=O)[C@@H](N)Cc1c[nH]cn1)[C@@H](C)O)[C@@H](C)O)C(=O)N[C@@H](CCC(N)=O)C(=O)N[C@@H](CCCNC(=N)N)C(=O)N[C@@H](CC(C)C)C(=O)N[C@@H](CC(C)C)C(=O)N[C@@H](CCC(N)=O)C(=O)NCC(=O)N[C@H](CC(C)C)C(=O)N[C@H](C(=O)O)C(C)C [Peptide 95],β-arrestin2-GFP agonism efficacy,"101,90 % Sec"
CC(C)C[C@H](NC(=O)CNC(=O)[C@H](CCC(N)=O)NC(=O)[C@H](CC(C)C)NC(=O)[C@H](CC(C)C)NC(=O)[C@H](CCCNC(=N)N)NC(=O)[C@H](CCC(N)=O)NC(=O)[C@H](CC(C)C)NC(=O)[C@H](CCCNC(=N)N)NC(=O)[C@H](CCC(=O)O)NC(=O)CNC(=O)[C@H](CCC(=O)O)NC(=O)[C@H](CCCNC(=N)N)NC(=O)[C@H](CC(C)C)NC(=O)[C@H](CCCNC(=N)N)NC(=O)[C@H](CO)NC(=O)[C@H](CC(C)C)NC(=O)[C@H](CCC(=O)O)NC(=O)[C@H](CO)NC(=O)[C@@H](NC(=O)[C@H](Cc1ccccc1)NC(=O)[C@@H](NC(=O)CNC(=O)[C@H](CC(=O)O)NC(=O)[C@H](CO)NC(=O)[C@@H](N)Cc1c[nH]cn1)[C@@H](C)O)[C@@H](C)O)C(=O)N[C@H](C(=O)O)C(C)C [Peptide 70],β-arrestin2-GFP agonism efficacy,"104,77 % Sec"
same,EC50,2.26 nM
CC(C)C[C@H](NC(=O)CNC(=O)[C@H](CCC(N)=O)NC(=O)[C@H](CC(C)C)NC(=O)[C@H](CC(C)C)NC(=O)[C@H](CCCNC(=N)N)NC(=O)[C@H](CCC(N)=O)NC(=O)[C@H](CC(C)C)NC(=O)[C@H](CCCNC(=N)N)NC(=O)[C@H](C)NC(=O)CNC(=O)[C@H](CCC(=O)O)NC(=O)[C@H](CCCNC(=N)N)NC(=O)[C@H](CC(C)C)NC(=O)[C@H](CCCNC(=N)N)NC(=O)[C@H](CO)NC(=O)[C@H](CC(C)C)NC(=O)[C@H](CCC(=O)O)NC(=O)[C@H](CO)NC(=O)[C@@H](NC(=O)[C@H](Cc1ccccc1)NC(=O)[C@@H](NC(=O)CNC(=O)[C@@H](CC(=O)O)NC(=O)[C@H](CO)NC(=O)[C@@H](N)Cc1c[nH]cn1)[C@@H](C)O)[C@@H](C)O)C(=O)N[C@H](C(=O)O)C(C)C [Peptide 88],β-arrestin2-GFP agonism efficacy,"89,07 % Sec"
CC(C)C[C@H](NC(=O)CNC(=O)[C@H](CCC(N)=O)NC(=O)[C@H](CC(C)C)NC(=O)[C@H](CC(C)C)NC(=O)[C@H](CCCNC(=N)N)NC(=O)[C@H](CCC(N)=O)NC(=O)[C@H](CC(C)C)NC(=O)[C@H](CCCNC(=N)N)NC(=O)[C@H](C)NC(=O)CNC(=O)[C@H](CCC(=O)O)NC(=O)[C@H](CCCNC(=N)N)NC(=O)[C@H](CC(C)C)NC(=O)[C@H](CCCNC(=N)N)NC(=O)[C@H](CO)NC(=O)[C@H](CC(C)C)NC(=O)[C@@H](CCC(=O)O)NC(=O)[C@H](CO)NC(=O)[C@@H](NC(=O)[C@H](Cc1ccccc1)NC(=O)[C@@H](NC(=O)CNC(=O)[C@H](CC(=O)O)NC(=O)[C@H](CO)NC(=O)[C@@H](N)Cc1c[nH]cn1)[C@@H](C)O)[C@@H](C)O)C(=O)N[C@H](C(=O)O)C(C)C [Peptide 93],β-arrestin2-GFP agonism efficacy,"100,40 % Sec"
CC(C)C[C@H](NC(=O)CNC(=O)[C@H](CCC(N)=O)NC(=O)[C@H](CC(C)C)NC(=O)[C@H](CC(C)C)NC(=O)[C@H](CCCNC(=N)N)NC(=O)[C@H](CCC(N)=O)NC(=O)[C@H](CC(C)C)NC(=O)[C@H](CCCNC(=N)N)NC(=O)[C@H](C)NC(=O)CNC(=O)[C@H](CCC(=O)O)NC(=O)[C@H](CCCNC(=N)N)NC(=O)[C@H](CC(C)C)NC(=O)[C@H](CCCNC(=N)N)NC(=O)[C@H](CO)NC(=O)[C@H](CC(C)C)NC(=O)[C@H](CCC(=O)O)NC(=O)[C@H](CO)NC(=O)[C@@H](NC(=O)[C@H](Cc1ccccc1)NC(=O)[C@@H](NC(=O)CNC(=O)[C@H](CC(=O)O)NC(=O)[C@@H](CO)NC(=O)[C@@H](N)Cc1c[nH]cn1)[C@@H](C)O)[C@@H](C)O)C(=O)N[C@H](C(=O)O)C(C)C [Peptide 87],β-arrestin2-GFP agonism efficacy,"91,57 % Sec"
CC(C)C[C@H](NC(=O)[C@H](CCCNC(=N)N)NC(=O)[C@H](C)NC(=O)CNC(=O)[C@H](CCC(=O)O)NC(=O)[C@H](CCCNC(=N)N)NC(=O)[C@H](CC(C)C)NC(=O)[C@H](CCCNC(=N)N)NC(=O)[C@H](CO)NC(=O)[C@H](CC(C)C)NC(=O)[C@H](CCC(=O)O)NC(=O)[C@H](CO)NC(=O)[C@@H](NC(=O)[C@H](Cc1ccccc1)NC(=O)[C@@H](NC(=O)CNC(=O)[C@H](CC(=O)O)NC(=O)[C@H](CO)NC(=O)[C@@H](N)Cc1c[nH]cn1)[C@@H](C)O)[C@@H](C)O)C(=O)N[C@@H](CCC(N)=O)C(=O)N[C@@H](CCCNC(=N)N)C(=O)N[C@@H](CC(C)C)C(=O)N[C@@H](CC(C)C)C(=O)N[C@@H](CCC(N)=O)C(=O)N1CCC[C@H]1C(=O)N[C@@H](CC(C)C)C(=O)N[C@H](C(=O)O)C(C)C [Peptide 83],β-arrestin2-GFP agonism efficacy,"103,17 % Sec"
same,EC50,22.1 nM
CC(C)C[C@H](NC(=O)CNC(=O)[C@H](CCC(N)=O)NC(=O)[C@H](CC(C)C)NC(=O)[C@H](CC(C)C)NC(=O)[C@H](CCCNC(=N)N)NC(=O)[C@H](CCC(N)=O)NC(=O)[C@H](CC(C)C)NC(=O)[C@H](CCCNC(=N)N)NC(=O)[C@H](C)NC(=O)[C@H](CC(C)C)NC(=O)[C@H](CCC(=O)O)NC(=O)[C@H](CCCNC(=N)N)NC(=O)[C@H](CC(C)C)NC(=O)[C@H](CCCNC(=N)N)NC(=O)[C@H](CO)NC(=O)[C@H](CC(C)C)NC(=O)[C@H](CCC(=O)O)NC(=O)[C@H](CO)NC(=O)[C@@H](NC(=O)[C@H](Cc1ccccc1)NC(=O)[C@@H](NC(=O)CNC(=O)[C@H](CC(=O)O)NC(=O)[C@H](CO)NC(=O)[C@@H](N)Cc1c[nH]cn1)[C@@H](C)O)[C@@H](C)O)C(=O)N[C@H](C(=O)O)C(C)C [Peptide 72],β-arrestin2-GFP agonism efficacy,"104,60 % Sec"
same,EC50,3.32 nM
